The supplement of paper PMC4862054

Key:
Experiment in all cases: normalised viability (% of control), CellTiter-Blue; higher = more viable cells (about 100 = DMSO control)
CAL-85-1 [1] = conditions: 5 nM; incubation time: 72 h
Experimental: (§1)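 DSRT, CellTiter-Blue viability, 72 h incubation. Signal is normalised to DMSO and benzethonium chloride controls. Value is the normalised response at dose 3.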

BT-474 [2] = conditions: 50 nM; incubation time: 72 h
Experimental: as §1

Hs578T [3] = conditions: 50 nM; incubation time: 72 h
Experimental: as §1

MFM-223 [4] = conditions: 50 nM; incubation time: 72 h
Experimental: as §1

MDA-MB-231 [5] = conditions: 50 nM; incubation time: 72 h
Experimental: as §1

HCC1143 [6] = conditions: 50 nM; incubation time: 72 h
Experimental: as §1

DU-4475 [7] = conditions: 5 nM; incubation time: 72 h
Experimental: as §1

SK-BR-3 [8] = conditions: 50 nM; incubation time: 72 h
Experimental: as §1

MDA-MB-468 [9] = conditions: 50 nM; incubation time: 72 h
Experimental: as §1

HCC1599 [10] = conditions: 50 nM; incubation time: 72 h
Experimental: as §1

HDQ-P1 [11] = conditions: 5 nM; incubation time: 72 h
Experimental: as §1

MDA-MB-436 [12] = conditions: 50 nM; incubation time: 72 h
Experimental: as §1

BT-549 [13] = conditions: 50 nM; incubation time: 72 h
Experimental: as §1

CAL-120 [14] = conditions: 50 nM; incubation time: 72 h
Experimental: as §1

MDA-MB-453 [15] = conditions: 5 nM; incubation time: 72 h
Experimental: as §1

HCC1937 [16] = conditions: 50 nM; incubation time: 72 h
Experimental: as §1

CAL-148 [17] = conditions: 5 nM; incubation time: 72 h
Experimental: as §1

CAL-51 [18] = conditions: 5 nM; incubation time: 72 h
Experimental: as §1

CAL-85-1 [19] = conditions: incubation time: 72 h
Method in brief: (§2)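 Breast cancer cell lines in 20 µl suspension were seeded onto 384-well plates pre-loaded with compound dissolved in 5 µl medium, then incubated 72 h. CellTiter-Blue reagent (2.5 µl) was added for 2 h at 37 °C and fluorescence read at 560/590 nm. Each plate was normalised to vehicle (100) and a positive kill control (0), with Z'-factor quality control. The value is normalised viability at one listed concentration of the series.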

BT-474 [20] = conditions: incubation time: 72 h
Method in brief: as §2

Hs578T [21] = conditions: incubation time: 72 h
Method in brief: as §2

MFM-223 [22] = conditions: incubation time: 72 h
Method in brief: as §2

MDA-MB-231 [23] = conditions: incubation time: 72 h
Method in brief: as §2

HCC1143 [24] = conditions: incubation time: 72 h
Method in brief: as §2

DU-4475 [25] = conditions: incubation time: 72 h
Method in brief: as §2

SK-BR-3 [26] = conditions: incubation time: 72 h
Method in brief: as §2

MDA-MB-468 [27] = conditions: incubation time: 72 h
Method in brief: as §2

HCC1599 [28] = conditions: incubation time: 72 h
Method in brief: as §2

HDQ-P1 [29] = conditions: incubation time: 72 h
Method in brief: as §2

MDA-MB-436 [30] = conditions: incubation time: 72 h
Method in brief: as §2

BT-549 [31] = conditions: incubation time: 72 h
Method in brief: as §2

CAL-120 [32] = conditions: incubation time: 72 h
Method in brief: as §2

MDA-MB-453 [33] = conditions: incubation time: 72 h
Method in brief: as §2

HCC1937 [34] = conditions: incubation time: 72 h
Method in brief: as §2

CAL-148 [35] = conditions: incubation time: 72 h
Method in brief: as §2

CAL-51 [36] = conditions: incubation time: 72 h
Method in brief: as §2

Structure (SMILES): CC[C@@]1(O)C(=O)OCc2c1cc1n(c2=O)Cc2cc3ccccc3nc2-1 [Camptothecin]
- normalised viability (CAL-85-1 [1]): 93.7%
- normalised viability (BT-474 [2]): 90.8%
- normalised viability (Hs578T [3]): 81.8%
- normalised viability (MFM-223 [4]): 93.8%
- normalised viability (MDA-MB-231 [5]): 78.9%
- normalised viability (HCC1143 [6]): 50.9%
- normalised viability (DU-4475 [7]): 82.2%
- normalised viability (SK-BR-3 [8]): 49.7%
- normalised viability (MDA-MB-468 [9]): 46.8%
- normalised viability (HCC1599 [10]): 90.2%
- normalised viability (HDQ-P1 [11]): 99.4%
- normalised viability (MDA-MB-436 [12]): 87.9%
- normalised viability (BT-549 [13]): 67.3%
- normalised viability (CAL-120 [14]): 65.5%
- normalised viability (MDA-MB-453 [15]): 103%
- normalised viability (HCC1937 [16]): 45.8%
- normalised viability (CAL-148 [17]): 70.3%
- normalised viability (CAL-51 [18]): 99%
- normalised viability (CAL-85-1 [19]; 1.5 nM): 98%
- normalised viability (CAL-85-1 [19]; 15 nM): 87.3%
- normalised viability (CAL-85-1 [19]; 50 nM): 74.8%
- normalised viability (BT-474 [20]; 5 nM): 101%
- normalised viability (BT-474 [20]; 500 nM): 69.9%
- normalised viability (BT-474 [20]; 5000 nM): 60.3%
- normalised viability (Hs578T [21]; 5 nM): 112%
- normalised viability (Hs578T [21]; 500 nM): 59.6%
- normalised viability (Hs578T [21]; 5000 nM): 11.5%
- normalised viability (MFM-223 [22]; 5 nM): 108%
- normalised viability (MFM-223 [22]; 500 nM): 79.8%
- normalised viability (MFM-223 [22]; 5000 nM): 32.3%
- normalised viability (MDA-MB-231 [23]; 5 nM): 98%
- normalised viability (MDA-MB-231 [23]; 500 nM): 51.8%
- normalised viability (MDA-MB-231 [23]; 5000 nM): 22.6%
- normalised viability (HCC1143 [24]; 5 nM): 78.3%
- normalised viability (HCC1143 [24]; 500 nM): 33.5%
- normalised viability (HCC1143 [24]; 5000 nM): 22.9%
- normalised viability (DU-4475 [25]; 1.5 nM): 117%
- normalised viability (DU-4475 [25]; 15 nM): 60.2%
- normalised viability (DU-4475 [25]; 50 nM): 44.7%
- normalised viability (SK-BR-3 [26]; 5 nM): 100%
- normalised viability (SK-BR-3 [26]; 500 nM): 20.6%
- normalised viability (SK-BR-3 [26]; 5000 nM): 8%
- normalised viability (MDA-MB-468 [27]; 5 nM): 93%
- normalised viability (MDA-MB-468 [27]; 500 nM): 12.1%
- normalised viability (MDA-MB-468 [27]; 5000 nM): 6.62%
- normalised viability (HCC1599 [28]; 5 nM): 108%
- normalised viability (HCC1599 [28]; 500 nM): 60.1%
- normalised viability (HCC1599 [28]; 5000 nM): 29.5%
- normalised viability (HDQ-P1 [29]; 1.5 nM): 90.7%
- normalised viability (HDQ-P1 [29]; 15 nM): 83.2%
- normalised viability (HDQ-P1 [29]; 50 nM): 65.9%
- normalised viability (MDA-MB-436 [30]; 5 nM): 97%
- normalised viability (MDA-MB-436 [30]; 500 nM): 31.2%
- normalised viability (MDA-MB-436 [30]; 5000 nM): 10.3%
- normalised viability (BT-549 [31]; 5 nM): 82.1%
- normalised viability (BT-549 [31]; 500 nM): 39.3%
- normalised viability (BT-549 [31]; 5000 nM): 20.7%
- normalised viability (CAL-120 [32]; 5 nM): 81.5%
- normalised viability (CAL-120 [32]; 500 nM): 22.6%
- normalised viability (CAL-120 [32]; 5000 nM): 10.3%
- normalised viability (MDA-MB-453 [33]; 1.5 nM): 114%
- normalised viability (MDA-MB-453 [33]; 15 nM): 105%
- normalised viability (MDA-MB-453 [33]; 50 nM): 77.4%
- normalised viability (HCC1937 [34]; 5 nM): 92.6%
- normalised viability (HCC1937 [34]; 500 nM): 29.6%
- normalised viability (HCC1937 [34]; 5000 nM): 25.5%
- normalised viability (CAL-148 [35]; 1.5 nM): 102%
- normalised viability (CAL-148 [35]; 15 nM): 47.9%
- normalised viability (CAL-148 [35]; 50 nM): 30.9%
- normalised viability (CAL-51 [36]; 1.5 nM): 103%
- normalised viability (CAL-51 [36]; 15 nM): 57%
- normalised viability (CAL-51 [36]; 50 nM): 31.1%
